Measured values from patent US20230146455A1, “TREATMENT OF INFLAMMATORY DISEASES WITH PEPTIDES AND PHARMACEUTICAL COMPOSITIONS” (Yuyu Pharma, Inc., priority 2020, published 2023).
Several values for one entry are separate records, joined by “and”; a condition that tells them apart may be missing. Identical values can stand only once. Where a SMILES comes first, the peptide text is derived from it. [ ]: non-standard residue; d: D form. Hyp = O=C(O)[C@@H]1C[C@@H](O)CN1

Test system: IL-2
Test: Example 9 Luminex, LPS hPBMCs: IL-2
Type: cell-based, human
Conditions: for IL-2 Concentration: dilution 2.0
Description: Treatment Human PBMCs were pretreated with YY-101, YDE-011 and YDE-043 or reference compound; Xiidra® at various concentration (ranging from 1 nM to 100 uM) for 2 h before stimulation. An equal volume of 0.5% DMSO was used as a vehicle control. Then, the cells were treated with LPS at 5 ug/ml. The supernatants from treated cells were harvested at 24 h and placed in a 96 well for Luminex cytokine & chemokine profiling using a Luminex 200 multiplex assay (Luminex; R&D system, USA).
The main study arm with triplicate wells per group in a 24-well plate: • 1. Blank • 2. PBMC: 0.5% DMSO • 3. PBMC+LPS (5 ug/ml) • 4. PBMC+YY-101 100 uM • 5. PBMC+YY-101 10 uM • 6. PBMC+YY-101 1 uM • 7. PBMC+YY-101 0.1 uM • 8. PBMC+YY-101 0.01 uM • 9. PBMC+LPS (5 ug/ml)+Xiidra®100 uM • 10. PBMC+LPS (5 ug/ml)+Xiidra® 10 uM • 11. PBMC+LPS (5 ug/ml)+Xiidra® 1 uM • 12. PBMC+LPS (5 ug/ml)+Xiidra®0.1 uM • 13. PBMC+LPS (5 ug/ml)+Xiidra®0.01 uM • 14. PBMC+LPS (5 ug/ml)+Xiidra®0.001 uM • 15. PBMC+LPS (5 ug/ml)+YY-101 100 uM • 16. PBMC+LPS (5 ug/ml)+YY-101 10 uM • 17. PBMC+LPS (5 ug/ml)+YY-101 1 uM • 18. PBMC+LPS (5 ug/ml)+YY-101 0.1 uM • 19. PBMC+LPS (5 ug/ml)+YY-101 0.01 uM • 20. PBMC+LPS (5 ug/ml)+YY-101 0.001 uM • 21. PBMC+LPS (5 ug/ml)+YDE-011 100 uM • 22. PBMC+LPS (5 ug/ml)+YDE-011 10 uM • 23. PBMC+LPS (5 ug/ml)+YDE-011 1 uM • 24. PBMC+LPS (5 ug/ml)+YDE-011 0.1 uM • 25. PBMC+LPS (5 ug/ml)+YDE-011 0.01 uM • 26. PBMC+LPS (5 ug/ml)+YDE-011 0.001 uM • 27. PBMC+LPS (5 ug/ml)+YDE-043 100 uM • 28. PBMC+LPS (5 ug/ml)+YDE-043 10 uM • 29. PBMC+LPS (5 ug/ml)+YDE-043 1 uM • 30. PBMC+LPS (5 ug/ml)+YDE-043 0.1 uM • 31. PBMC+LPS (5 ug/ml)+YDE-043 0.01 uM • 32. PBMC+LPS (5 ug/ml)+YDE-043 0.001 uM
Multiplex assay was used to measure 30 cytokines and chemokines. The 1:2, 1:10 and 1:200 diluted cell supernatant and serial dilution of the standard were dispensed into a 96 well plate at 50 ul/well. Then, the pre-mixed cocktail of antibody-coated magnetic beads was dispensed at 50 ul/well and incubated at room temperature for 2 h in a horizontal orbital microplate shaker at 800±500 rpm. The beads were washed using a magnetic device to prevent loss. The biotin-antibody was dispensed in 50 ul of each well and incubated at room temperature for 1 h in a shaker at 800±500 rpm. After washing, streptavidin-PE was added at 50 ul/well and incubated at room temperature for 30 min in a shaker under the same conditions. Finally, after washing, wash buffer (100 ul/well) was added to the plate and incubated in a shaker for 2 min. The Luminex™ 200 setting were set according to the manufacturer's protocol. The data was calculated with a standard five-parameter logistic nonlinear regression analysis of the data (xPonent software 4.2, USA). The levels of cytokine/chemokine are normalized to the live cell counts (1×10^5 cells/mL) and presented as concentrations per mL (pg/mL or ng/mL).

[1] = PBMC + LPS(5 ug/ml) + test article 0.001 uM, Mean
[2] = PBMC + LPS(5 ug/ml) + test article 0.001 uM, single replicates
[3] = PBMC + LPS(5 ug/ml) + test article 0.01 uM, Mean
[4] = PBMC + LPS(5 ug/ml) + test article 0.01 uM, single replicates
[5] = PBMC + LPS(5 ug/ml) + test article 0.1 uM, Mean
[6] = PBMC + LPS(5 ug/ml) + test article 0.1 uM, single replicates
[7] = PBMC + LPS(5 ug/ml) + test article 1 uM, Mean
[8] = PBMC + LPS(5 ug/ml) + test article 1 uM, single replicates
[9] = PBMC + LPS(5 ug/ml) + test article 10 uM, Mean
[10] = PBMC + LPS(5 ug/ml) + test article 10 uM, single replicates
[11] = PBMC + LPS(5 ug/ml) + test article 100 uM, Mean
[12] = PBMC + LPS(5 ug/ml) + test article 100 uM, single replicates
[13] = PBMC + test article 0.01 uM, no LPS, Mean
[14] = PBMC + test article 0.01 uM, no LPS, single replicates
[15] = PBMC + test article 0.1 uM, no LPS, Mean
[16] = PBMC + test article 0.1 uM, no LPS, single replicates
[17] = PBMC + test article 1 uM, no LPS, Mean
[18] = PBMC + test article 1 uM, no LPS, single replicates
[19] = PBMC + test article 10 uM, no LPS, Mean
[20] = PBMC + test article 10 uM, no LPS, single replicates
[21] = PBMC + test article 100 uM, no LPS, Mean
[22] = PBMC + test article 100 uM, no LPS, single replicates

Compound: CC(C)C[C@H](NC(=O)CNC(=O)[C@H](CC(=O)O)NC(=O)[C@H](CCC(N)=O)NC(=O)CNC(=O)[C@@H]1C[C@@H](O)CN1)C(=O)N[C@@H](C)C(=O)NCC(=O)N1CCC[C@H]1C(=O)N[C@@H](CCCCN)C(=O)O [YY-101] (H-[Hyp]GQDGLAGPK-OH; N-terminus and C-terminus assumed)
- IL-2 conc/live cell [1]: 0.9 pg/10^5
- MFI, Bead name: IL-2 [1]: 16.3
- IL-2 Concentration [1]: 5.7 pg/mL
- IL-2 Concentration [2]: 3.4 pg/mL and 7.6 pg/mL and 6.2 pg/mL
- IL-2 conc/live cell [2]: 0.6 pg/10^5 and 1.1 pg/10^5 and 0.9 pg/10^5
- MFI, Bead name: IL-2 [2]: 13.0 and 19.0 and 17.0
- IL-2 conc/live cell [3]: 1.4 pg/10^5
- MFI, Bead name: IL-2 [3]: 20.3
- IL-2 Concentration [3]: 8.6 pg/mL
- IL-2 Concentration [4]: 6.9 pg/ml (2×) and 11.8 pg/ml
- IL-2 conc/live cell [4]: 1.1 pg/10^5 (2×) and 2.0 pg/10^5
- MFI, Bead name: IL-2 [4]: 18.0 (2×) and 25.0
- IL-2 conc/live cell [5]: 0.0 pg/10^5
- MFI, Bead name: IL-2 [5]: 6.3
- IL-2 conc/live cell [6]: 0.0 pg/10^5
- MFI, Bead name: IL-2 [6]: 8.0 (2×) and 3.0
- IL-2 conc/live cell [7]: 0.6 pg/10^5
- MFI, Bead name: IL-2 [7]: 13.7
- IL-2 Concentration [7]: 3.8 pg/mL
- IL-2 Concentration [8]: 5.2 pg/mL and 3.7 pg/mL and 2.6 pg/mL
- IL-2 conc/live cell [8]: 0.8 pg/10^5 and 0.5 pg/10^5 and 0.4 pg/10^5
- MFI, Bead name: IL-2 [8]: 15.5 and 13.5 and 12.0
- IL-2 conc/live cell [9]: 0.8 pg/10^5
- MFI, Bead name: IL-2 [9]: 15.7
- IL-2 Concentration [9]: 5.3 pg/mL
- IL-2 Concentration [10]: 8.0 pg/mL and 4.1 pg/mL and 3.7 pg/mL
- IL-2 conc/live cell [10]: 1.3 pg/10^5 and 0.6 pg/10^5 and 0.5 pg/10^5
- MFI, Bead name: IL-2 [10]: 19.5 and 14.0 and 13.5
- IL-2 conc/live cell [11]: 0.1 pg/10^5
- MFI, Bead name: IL-2 [11]: 9.0
- IL-2 Concentration [11]: 1.1 pg/mL
- IL-2 Concentration [12]: 1.9 pg/mL and 0.4 pg/mL
- IL-2 conc/live cell [12]: 0.3 pg/10^5 and 0.1 pg/10^5 and 0.0 pg/10^5
- MFI, Bead name: IL-2 [12]: 11.0 and 9.0 and 7.0
- IL-2 conc/live cell [13]: 11.5 pg/10^5
- MFI, Bead name: IL-2 [13]: 93.3
- IL-2 Concentration [13]: 57.4 pg/mL
- IL-2 Concentration [14]: 56.9 pg/mL and 57.9 pg/mL
- IL-2 conc/live cell [14]: 10.9 pg/10^5 and 12.1 pg/10^5
- MFI, Bead name: IL-2 [14]: 92.5 and 94.0
- IL-2 conc/live cell [15]: 11.5 pg/10^5
- MFI, Bead name: IL-2 [15]: 96.3
- IL-2 Concentration [15]: 59.3 pg/mL
- IL-2 Concentration [16]: 45.4 pg/mL and 73.2 pg/mL
- IL-2 conc/live cell [16]: 10.3 pg/10^5 and 12.6 pg/10^5
- MFI, Bead name: IL-2 [16]: 75.0 and 117.5
- IL-2 conc/live cell [17]: 11.4 pg/10^5
- MFI, Bead name: IL-2 [17]: 101.5
- IL-2 Concentration [17]: 62.8 pg/mL
- IL-2 Concentration [18]: 59.8 pg/mL and 65.7 pg/mL
- IL-2 conc/live cell [18]: 10.9 pg/10^5 and 11.9 pg/10^5
- MFI, Bead name: IL-2 [18]: 97.0 and 106.0
- IL-2 conc/live cell [19]: 11.3 pg/10^5
- MFI, Bead name: IL-2 [19]: 113.5
- IL-2 Concentration [19]: 70.6 pg/mL
- IL-2 Concentration [20]: 69.6 pg/mL and 71.5 pg/mL
- IL-2 conc/live cell [20]: 10.9 pg/10^5 and 11.7 pg/10^5
- MFI, Bead name: IL-2 [20]: 112.0 and 115.0
- IL-2 conc/live cell [21]: 2.2 pg/10^5
- MFI, Bead name: IL-2 [21]: 29.0
- IL-2 Concentration [21]: 14.6 pg/mL
- IL-2 Concentration [22]: 13.2 pg/mL and 16.0 pg/mL
- IL-2 conc/live cell [22]: 2.1 pg/10^5 and 2.3 pg/10^5
- MFI, Bead name: IL-2 [22]: 27.0 and 31.0
